Series [1] relates to ovarian cancer cells (MDAH2774). In words: MTT cell viability of transfected MDAH2774 cells. The conditions noted are these: for Normalized O.D / Original O.D / cancer cell viability (in words, FIG. 10B and Table 2): MTT, MDAH2774; for Normalized O.D / Original O.D: peptide 200 uM; for cancer cell viability (in words, FIG. 10B and Table 2): transfected peptides. Format: cell-based, human. From the text:
Human ovarian cancer cell lines TOV112D, TOV21G, SKOV3, MDAH2774, ES2, MDAH2774, BG1; human endometrial cancer cell line RL95-2, human pancreatic cancer cell line BxPC3, breast cancer cell line (MCF7) and colon cancer cell line (HT29) were obtained from ATCC (Rockville, Md., USA). Lung cancer cell line CL1-0 and nasopharyngeal carcinoma cell line NPC-BM1 were obtained from Dr. C C Wu (Department of Medical Biotechnology and Laboratory Science, Chang-Gung University, Taoyuan, Taiwan), Wu et al. Mol. Cell Proteomics 9(6):11100 (20101). Mouse ovarian cancer cell line MOSEC was obtained from Dr. C L Chang (Department of Obstetrics and Gynecology, Mackay Memorial Hospital, Taipei, Taiwan), Chang et al. Cancer Research 67:10047 (2007). TOV112D, TOV21G, SKOV3, MDAH2774, ES2 and RL95-2 were cultured in Dulbecco's modified Eagle's medium/F-12 supplemented with 10% fetal bovine serum and antibiotics at 37° C. in 5% CO2 humidified atmosphere. BxPC3, CL1-0, NPC-BM1 and MOSEC cells were cultured in RPMI 1640 media supplemented with 10% fetal bovine serum.
Cancer cells were transfected with an STIP1 antibody in PLUSin reagent (Polyplus-transfection Inc., NY, USA) according to manufacturer's protocol. In summary, 2×10^3˜6×10^3 cancer cells were seeded in a 96-well plate overnight, followed by PBS rinse and the addition of 180 μl of OPTI-MEM. 0.6 μg of mouse STIP1 antibody were diluted in 20 mM HEPES, mixed with 1.2 μl of PLUSin by vortexing, followed by incubation at room temperature for 15 min. The antibody/PLUSin mixture was added to the cancer cells by gentle swirling the plate. The STIP1 antibody and the control IgG used in the working examples described herein are commercially available from Abnova Biotechnology Inc., (Taipei City, Taiwan). The STIP1 antibody in the working examples described herein can be used to detect recombinant full length STIP1 (SEQ ID NO:3).
1˜2×10^4 Cancer cells were plated per well in 96-well plates overnight, then transfected with a mouse STIP1 antibody (commercially available from Abnova Biotechnology Inc.) for 48 h before they were assessed. The inhibitory effect of the STIP1 antibody on the cancer cells was measured by the MTT [3-(4,5-Dimethylthiazol-2-yl)-2,5-Diphenyltetrazolium Bromide]method (Sigma St. Louis, Mo.). The optical density was measured at 570 nm using an automated scanning multiwell spectrophotometer (Wallac Victor2 spectrophotometer; PerkinElmer, Boston, Mass., USA).
Given the neutralizing effect of STIP1 polypeptide 520-543 (SEQ ID NO:1) on STIP1 antibody, co-transfecting STIP1 antibody and STIP1 polypeptide 520-543 in cancer cells may reduce the suppression effect of STIP1 antibody. FIG. 10A and Table 1 show cell viability of ovarian cancer cells (MDAH2774) transfected with STIP1 antibody only (positive control) and STIP1 antibody with various concentrations of STIP1 polypeptide 520-543. Cell viability was evaluated using MTT assays. […] For example, the cell viability for STIP1 antibody was 78.81% (Table 1), the cell viability for 25 uM of STIP1 polypeptide 520-543 was 102% (Table 2), and the cell viability for STIP1 antibody and […] of STIP1 polypeptide 520-543 was 56.38% (Table 1). Similarly, the cell viability for 200 uM of STIP1 polypeptide 520-543 was 28.64% (Table 2), and the cell viability for STIP1 antibody and […] of STIP1 polypeptide 520-543 was 27.67% (Table 1).

Series [2] has as its system MDAH2774 cells. In words: Ki67 immunocytochemistry (FIG. 7B, 7D, 7F). Type of series: cell-based, human. Particulars: for rhSTIP1-increased Ki67 staining: with inhibitor, antibody or siRNA. As for the experimental part:
(§1) The BrdU assay and Ki67 staining procedures have been reported previously (Tsai et al 2012, Wang et al 2010). For BrdU assays, cancer cells were seeded at a density of 10^4 cells/well in a 96-well plate overnight, and cultured in serum-free medium for 24 h. Cancer cells were treated with 0.4 μM of rhSTIP1 in the presence of BrdU for 24 h. DNA synthesis activity was measured using BrdU ELISA kit (Roche Applied Science). For immunocytochemistry studies of Ki-67, MDAH2774 cells were cultured on Lab-Tek II chamber slides (Nalge Nunc International, Denmark) overnight. After serum starvation or RNAi transfection for 72 h, cancer cells were treated with 0.4 μM of STIP1 with or without an STIP1 antibody for another 24 h. The slides were fixed with 99.9% of ethanol, rehydrated with PBS, treated with 3% of hydrogen peroxide for 20 min, permeabilized with 0.1% Triton X-100 (Sigma) for 15 min, and stained with anti-Ki67 antibody (Thermo Fisher Scientific, Rockford, Ill.).
(§2) BrdU is an analogue of thymidine which can replace thymidine during DNA replication, and Ki67 is a nuclear protein that is associated with cell proliferation. BrdU incorporation assay and immunocytochemistry for endogenous Ki67 were used as an index for cell proliferation. Treatment with rhSTIP1 increased the BrdU incorporation rate and Ki67 staining of ovarian cancer cells (FIG. 7A to FIG. 7F). These activities were reduced by treatment with an ALK2/ALK3 inhibitor (LDN193189) and an ERK inhibitor (PD98059) (FIGS. 7A and 7B), an STIP1 antibody (FIGS. 7C and 7D), and ALK2 siRNA and STIP1 siRNA (FIGS. 7E and 7F).

In series [3] the test system is SMAD1/5 phosphorylation. The series is described as follows: SMAD1/5 phosphorylation western blot / antibody neutralization assay (FIG. 6A, 6B). Type of series: cell-based, human. The conditions noted are these: ES2, SKOV3, TOV21G, TOV112D, BR, BG1, RL95-2, CL1-0, NPC-BM1 cell lines. On the procedure: Cell lysates were prepared with a RIPA buffer (150 mM NaCl, 20 mM Tris-Cl pH7.5, 1% Triton X-100, 1% NP40, 0.1% SDS, 0.5% deoxycholate) containing freshly added proteinase and phosphatase inhibitors (Bionovas, Toronto). Protein concentration was measured using the Bradford method. Fifty μg of each sample was electrophoresed in 10% SDS-polyacrylamide gels, and transferred to nitrocellulose membranes. STIP1 antibody was commercially available from Abnova Biotechnology and Santa Cruz Biotechnology, Santa Cruz, Calif., actin was commercially available from Sigma, the corresponding horseradish peroxidase-conjugated antibody was commercially available from Santa Cruz Biotechnology, enhanced chemiluminescence reagent was commercially available from Millipore Inc. (Millipore, Billerica, Mass.). The signal intensity of autoradiogram was quantified using the UN-SCAN-IT software (Silk Scientific, Orem, Utah), and relative intensity of each sample was normalized by the corresponding actin intensity. For antibody neutralization assay, cancer cells were cultured in serum-free medium for 24 h, and treated with rhSTIP1 for another 24 h in the presence or absence of the STIP1 monoclonal antibody, which were pre-incubated at 37° C. for 1 h. Endogenous phospho-SMAD1/5 was detected with western blot analysis. […]
(Immunoblotting shows a protein as a band on a membrane.)

The subject of series [4] is ovarian cancer cells. The series is described as follows: BrdU proliferation assay (FIG. 7A, 7C, 7E). Type of series: cell-based, human. The conditions noted are these: for rhSTIP1-increased BrdU incorporation: with inhibitor, antibody or siRNA. As for the experimental part:
as §1, §2
Background: Incorporation of labelled thymidine or its analogues reports DNA synthesis.

For series [5], the system named is MDAH2774, ARK2, NPC-BM1, SAS, Colon 205, CL 1-0, BxPC3, HepG2 and MCF7 cells. In words: MTT assay with cell permeable peptide, cancer cell line panel (FIG. 13B). Format: cell-based. The conditions noted are these: all of the tested cancer cells. As for the experimental part: (§3) Cell permeable STIP1 polypeptide 520-543 was added to the following cancer cell lines: MDAH2774 (ovarian cancer); ARK2 (endometrial cancer); NPC-BM1 (nasopharyngeal cancer); SAS (oral cancer); Colon 205 (colon cancer); CL 1-0 (lung cancer); BxPC3 (pancreatic cancer); HepG2 (liver cancer) and MCF7 (breast cancer) cells. Cancer cell viability was assessed using the MTT assay and cell death was assessed using LDH assay.
For orientation: Tetrazolium dyes change colour on reduction, which living cells bring about.

For series [6] the test system is unchanged. In words: LDH assay with cell permeable peptide, cancer cell line panel (FIG. 13A). Format: cell-based. The conditions noted are these: all of the tested cancer cells. As for the experimental part: as §3

Where a SMILES comes first, the peptide text is derived from it. Where no end group is shown, it is not given here.

For the molecule VQQIMSDPAMRLILEQMQKDPQALS [Peptide 495], in series [1], the “Normalized O.D” value was determined as 0.97; the “Original O.D” value is 0.14; the “cancer cell viability (in words, FIG. 10B and Table 2)” value is recorded as “did not significantly suppress cancer cell viability”. For the same molecule, the “Cell viability (%)” value in series [1] (human, 48 h, 200 uM) is listed as 96.94%.

Turning to “rhSTIP1: recombinant human STIP1 protein (a.a. sequence number 1 to 543)”, the Ki67 staining entry in series [2] (treatment with rhSTIP1) is reported as “increased”. Moreover, the SMAD1/5 phosphorylation entry in series [3] is given as “stimulates SMAD1/5 phosphorylation”. The BrdU incorporation rate result in series [4] (treatment with rhSTIP1 (0.4 μM, 24 h)) is “increased”.

As to `c1ccc2c(-c3cnn4cc(-c5ccc(N6CCNCC6)cc5)cnc34)ccnc2c1` [LDN193189], the “rhSTIP1-increased Ki67 staining” value in series [2] is reported as “reduced”. Also, in series [4], the “rhSTIP1-increased BrdU incorporation” value is reported as “reduced”.

`CSCC[C@H](NC(=O)[C@H](CCSC)NC(=O)[C@H](CS)NC(=O)[C@H](CCCNC(=N)N)NC(=O)[C@H](CCC(N)=O)NC(=O)[C@H](Cc1ccc(O)cc1)NC(=O)CNC(=O)[C@H](CC(=O)O)NC(=O)[C@H](C)NC(=O)[C@H](C)NC(=O)[C@H](CCC(=O)O)NC(=O)[C@H](CCCCN)NC(=O)[C@H](CS)NC(=O)[C@H](CO)NC(=O)[C@H](CO)NC(=O)[C@@H](N)CC(=O)O)C(=O)N[C@@H](C)C(=O)N[C@@H](CCC(N)=O)C(=O)N[C@@H](Cc1ccc(O)cc1)C(=O)N[C@@H](CC(N)=O)C(=O)N[C@@H](CCCNC(=N)N)C(=O)N[C@@H](Cc1c[nH]cn1)C(=O)N[C@@H](CC(=O)O)C(=O)N[C@@H](CO)C(=O)N1CCC[C@H]1C(=O)O` [Peptide 458] (H-DSSCKEAADGYQRCMMAQYNRHDSP-OH; N-terminus and C-terminus assumed): in series [1], the “Normalized O.D” value was determined as 0.83; the “Original O.D” value turned out to be 0.13; the “cancer cell viability (in words, FIG. 10B and Table 2)” value is “did not significantly suppress cancer cell viability”.

With “cell permeable STIP1 polypeptide 520-543: STIP1 polypeptide 520-543 having eight D-arginine residues; detected with anti-myc antibody (EHLKNPVIAQKIQKLMDVGLIAIR; also: octa-D-arginine attached, end not given here, myc tag; UniProt P31948 520-543, looked up, fragment)”, the “cell proliferation (MTT activity)” value in series [5] was “inhibits cell proliferation”. Also, the “cell death (LDH activity)” value in series [6] was “induce cell death”.

With `COc1cccc(-c2cc(=O)c3ccccc3o2)c1N` [PD98059], the “rhSTIP1-increased Ki67 staining” value in series [2] was “reduced”. The “cell proliferation (BrdU incorporation, FIG. 7A)” value in series [4] (inhibition of ERK activity) was “strongly inhibited cell proliferation”. Besides, in series [4], the “rhSTIP1-increased BrdU incorporation” value is given as “reduced”.

The values are drawn from US9145449B2, “STIP1 polypeptides and uses thereof” (Chang Gung Memorial Hospital, Linkou Branch, priority 2013, dated 2015).
